Results from patent publication US12076307B2, “Compositions for prevention or treatment of acute radiation syndrome and other radiation exposure” (priority 2017, dated 2024).
Where two headings read alike, the source gives them in different places.

Assays:
CYP1A2 = format: in vitro ADME, human; settings: for Enzyme Activity CYP1A2: n=3
[1] = Embryo-fetal developmental toxicity study, NZW rabbit; format: in vivo; settings: NZW, rabbit, in vivo; definitive study; Oral 13 days
Excerpt: (§1) Various toxicology studies have been performed. All studies were GLP-compliant unless otherwise noted.

NZW rabbit = assay: as above; format: in vivo; settings: Oral 13 days
Excerpt: as §1

[2] = system: C57BL/6J mice, 680 cGy TBI; assay: 30-day survival in C57BL/6J mice after LD70/30 (680 cGy) TBI; format: in vivo, mouse; settings: for Dead/Moribund, Females (percent) / Dead/Moribund, Males (percent): N=24; for Dead/Moribund, All Animals (percent): N=48
Protocol: The objective of this study was to evaluate the 30-day survival benefit of EC-18 in male and female C57BL/6J mice when administered by daily oral gavage at doses ranging from 100-375 mg/kg/day, for 30 consecutive days beginning approximately 24 hrs after a single LD70/30 dose (680 cGy) of TBI. The study had 4 dose groups, each with 24 animals of each sex, Group 1 animals were administered sterile PBS, Groups 2, 3, and 4 were administered EC-18 at 100, 250, and 375 mg/kg/day, respectively. Dose volumes were determined using the most recently recorded body weight. Survival was monitored for 30 days post irradiation, with early removal criterion used to determine morbidity. Clinical observations were recorded daily before administration of vehicle or test article. […] Body weights were recorded minimally 3 times per week, daily for animals with weight loss of ≥15%, or twice daily for animals with ≥20% weight loss.

SMILES: CCCCC/C=C\C/C=C\CCCCCCCC(=O)OC(COC(C)=O)COC(=O)CCCCCCCCCCCCCCC (stereo not shown) [EC-18, 1-palmitoyl-2-linoleoyl-3-acetylglycerol]
- Enzyme Activity CYP1A2 (CYP1A2; 1 μM): 0.33 ± 0.04 pmol/106 Cells/Min
- Enzyme Activity CYP1A2 (CYP1A2; 10 μM): 0.38 ± 0.06 pmol/106 Cells/Min
- Enzyme Activity CYP1A2 (CYP1A2; 100 μM): 0.33 ± 0.04 pmol/106 Cells/Min
- potential to induce CYP1A2 (CYP1A2; up to 100 μM): no potential to induce
- NOAEL at 13 days [1]: 500 mg/kg/day
- findings (NZW rabbit; DRF study, 0, 125, 250, 500 mg/kg): No specific findings
- mortality (NZW rabbit; DRF study, 250 mg/kg dose group, day 8 of pregnancy, attributed to loss of appetite before dosing): A single case of death
- mortality (NZW rabbit; definitive study, 0, 125, 250, 500 mg/kg): No dead animals
- combined sex survival ([2]; Group 2, 100 mg/kg/day): 21%
- increased survival above vehicle control, females ([2]; Group 2, 100 mg/kg/day): 29%
- survival, males ([2]; Group 2-4 (100-375 mg/kg/day)): 0-8%
- combined sex survival ([2]; Group 3, 250 mg/kg/day): 25%
- increased survival above vehicle control, females ([2]; Group 3, 250 mg/kg/day): 46%
- combined sex survival ([2]; Group 4, 375 mg/kg/day): 29%
- increased survival above vehicle control, females ([2]; Group 4, 375 mg/kg/day): 46%
- Dead/Moribund, Females (percent) ([2]; Grp 2: 100 mg/kg): 16 (67%)
- Dead/Moribund, Males (percent) ([2]; Grp 2: 100 mg/kg): 22 (92%)
- Dead/Moribund, All Animals (percent) ([2]; Grp 2: 100 mg/kg): 38 (79%)
- Dead/Moribund, Females (percent) ([2]; Grp 3: 250 mg/kg): 12 (50%)
- Dead/Moribund, Males (percent) ([2]; Grp 3: 250 mg/kg): 24 (100%)
- Dead/Moribund, All Animals (percent) ([2]; Grp 3: 250 mg/kg): 36 (75%)
- Dead/Moribund, Females (percent) ([2]; Grp 4: 375 mg/kg): 12 (50%)
- Dead/Moribund, Males (percent) ([2]; Grp 4: 375 mg/kg): 22 (92%)
- Dead/Moribund, All Animals (percent) ([2]; Grp 4: 375 mg/kg): 34 (71%)
- mean body weights vs vehicle ([2]; any study day): no statistically significant differences
